Measured values from patent US4645858A, “Pentanedioic acid derivatives” (G. D. Searle & Co., priority 1985, dated 1987).
Each block holds one compound with its values, some of them ahead of it.

Legend:
HMG CoA reductase = biological target: T1, HMG CoA reductase (Rattus norvegicus, UniProt P51639); assay: HMG CoA reductase activity assay (rat liver microsomal preparation); type: biochemical
T1 construct: The resultant supernatants are discarded and the residues suspended in half the volume of homogenization medium previously employed; from tissue; host or cells: liver of male Charles River CD rats treated with 20,25-diazacholesterol; 100,000×g pellet (microsomes) of the homogenate
T1 sequence (P51639 1-887): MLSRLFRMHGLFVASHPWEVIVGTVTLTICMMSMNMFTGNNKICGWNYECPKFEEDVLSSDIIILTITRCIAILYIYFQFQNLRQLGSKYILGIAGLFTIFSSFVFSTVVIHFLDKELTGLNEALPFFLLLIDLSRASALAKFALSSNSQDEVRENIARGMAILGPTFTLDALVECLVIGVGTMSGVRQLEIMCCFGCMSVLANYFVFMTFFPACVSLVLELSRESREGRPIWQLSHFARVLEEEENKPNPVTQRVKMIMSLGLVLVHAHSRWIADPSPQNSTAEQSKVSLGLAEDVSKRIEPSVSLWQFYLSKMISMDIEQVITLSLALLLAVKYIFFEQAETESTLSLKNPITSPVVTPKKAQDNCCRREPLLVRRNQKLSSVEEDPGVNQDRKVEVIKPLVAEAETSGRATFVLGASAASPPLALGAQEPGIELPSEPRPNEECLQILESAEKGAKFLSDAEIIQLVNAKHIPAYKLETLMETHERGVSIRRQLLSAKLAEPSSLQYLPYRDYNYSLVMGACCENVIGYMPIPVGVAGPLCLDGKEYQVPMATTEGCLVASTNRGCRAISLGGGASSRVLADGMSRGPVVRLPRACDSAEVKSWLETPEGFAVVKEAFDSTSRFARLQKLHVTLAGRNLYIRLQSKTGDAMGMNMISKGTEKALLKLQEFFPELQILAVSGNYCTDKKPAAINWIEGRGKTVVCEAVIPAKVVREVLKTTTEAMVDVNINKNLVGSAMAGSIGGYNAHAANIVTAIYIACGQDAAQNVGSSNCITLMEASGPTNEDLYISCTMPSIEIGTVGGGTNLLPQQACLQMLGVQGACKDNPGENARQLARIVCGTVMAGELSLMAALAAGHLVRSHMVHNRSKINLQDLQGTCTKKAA

male Rhesus monkey = assay: In vivo serum cholesterol test in male Rhesus monkeys; settings: 60 mg/kg/day
Protocol: In vivo activity is tested as follows:
Initial serum total cholesterol, triglycerides, and lipoprotein cholesterol values are determined 3 times for each male Rhesus monkey used before treatment with a test compound begins. The test compound is administered in an initial dose of 60 mg/kg for 2 weeks and blood samples are taken to determine if rebound occurs. […] Statistical comparisons are made using the two tailed student's test.

IC50 (HMG CoA reductase; read-out: IC50 (HMG CoA reductase inhibition)): 52 µM
Compound: O=C(O)CC(O)(CCCCCCCCCCC1CCCCC1)CC(=O)O

HMG CoA reductase inhibition (HMG CoA reductase; at concentrations at least up to 1000 μm): inactive
Compound: O=C(O)CC(O)(CC(=O)O)CC1CCCC1

Compound: CC(C)(C)CCCCCCCCCCCC(O)(CC(=O)O)CC(=O)O
reduced serum cholesterol (male Rhesus monkey; after 14 days of treatment, Rhesus monkey): 30%

Compound: CCCCCCCCCCCCCCCC(O)(CC(=O)O)CC(=O)O
acute toxicity (male Rhesus monkey; Rhesus monkeys): acute toxicity in 2 of 4 monkeys
